# Measurements taken from patent US5958918A, “Substituted (sulfinic acid, sulfonic acid, sulfonylamino or sulfinylamino) N-[(aminominomethyl)phenylalkyl]-azaheterocyclylamide compounds” (Rhone-Poulenc Rorer Pharmaceuticals Inc., priority 1997, dated 1999).
# Where a name gives a salt, the structure may show the parent alone.
# Target: factor Xa (Homo sapiens, UniProt P00742)
# Assay: Factor Xa inhibitor enzyme assay (purified enzyme, chromogenic peptide-p-nitroanilide substrate; apparent Ki by Cheng-Prusoff)
# Format: biochemical
# Description: Factor Xa Inhibitor: Enzyme Assay Methods
# All enzyme assays are carried out at room temperature in 96-well microtiter plates using a final enzyme concentration of 1 nM. The concentrations of factor Xa and thrombin are determined by active site titration and the concentrations of all other enzymes are based on the protein concentration supplied by the manufacturer. […] Compound dilutions are added to wells containing buffer and enzyme and pre-equilibrated for between 5 and 30 minutes. […] Under these conditions, less than 10% of the substrate is utilized in all assays. […] The apparent Ki values are then determined according to the Cheng-Prusoff equation (IC50=Ki [1+[S]/Km]) assuming competitive inhibition kinetics.
# Sequence of factor Xa (P00742 235-488 limits assumed): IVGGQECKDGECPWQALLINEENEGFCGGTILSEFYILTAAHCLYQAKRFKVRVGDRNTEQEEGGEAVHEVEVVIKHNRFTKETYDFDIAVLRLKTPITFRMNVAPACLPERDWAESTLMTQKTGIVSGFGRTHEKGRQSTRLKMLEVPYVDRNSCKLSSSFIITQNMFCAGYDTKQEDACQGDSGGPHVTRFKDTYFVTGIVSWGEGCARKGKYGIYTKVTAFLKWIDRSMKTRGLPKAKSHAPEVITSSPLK
# Sequence of factor Xa (P00742 41-179 partner limits assumed): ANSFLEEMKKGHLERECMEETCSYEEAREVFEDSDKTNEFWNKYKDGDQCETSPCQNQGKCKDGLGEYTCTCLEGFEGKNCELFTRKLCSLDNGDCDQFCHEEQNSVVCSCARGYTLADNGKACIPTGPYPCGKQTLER
structure (smiles),measurement,value
"N=C(N)c1cccc(CN2CC[C@H](NS(=O)(=O)c3ccc(-c4ccccn4)s3)C2=O)c1 [Example 7, 5-Pyrid-2-ylthiophene-2-sulfonic acid {1-[3-(aminoiminomethyl)benzyl]-2-oxopyrrolidin-3-(S)-yl}amide trifluoroacetate]",Ki,100 nM
